Counter-ions that a name gives are not always drawn.
Key:
insect bite = test: Case: insect bite with blistering and inflammation (Example 9); format: in vivo, human; details: oral anti-histamine plus topical corticosteroid cream together, first day
Text: In this example, a method of the invention is used to treat erythema and inflammation symptoms associated with an insect bite.

photodamaged skin (face) = test: Eight-week pilot study on photodamaged skin: clinical grading of efficacy (aging) parameters; format: in vivo, human; details: pilot study outcome, stated for the active
Description: An eight-week double blind vehicle controlled pilot study was conducted to evaluate the effects of a topical treatment comprising tocopheryl phosphate complexes on improving the appearance of photodamaged skin. Ten female subjects completed the pilot study.
At Visit 1 (screening), prospective subjects completed a health and eligibility questionnaire, and signed a photography release form and an informed consent agreement. Subjects were examined for study eligibility criteria according to the following classifications: […]
Qualified subjects returned to the clinic for Visit 2 (baseline). Subjects participated in the following clinical grading and instrumentation procedures: • Objective irritation (erythema, edema, scaling/skin dryness, rash) and subjective irritation (burning, itching, stinging, tingling, tightness) were assessed globally on the face. Results were recorded using the following scale: 0=none, 1=mild, 2=moderate, and 3=severe. • The following efficacy (aging) parameters were graded at the specified locations using a analog scale (extremes of the scale are listed in parentheses). […]
Mean scores for clinical grading parameters and pinch recoil measurements at Week 4 and Week 8 were statistically compared to baseline using a paired t-test at the p≦0.05 significance level. Mean percent change from baseline was calculated for all attributes. […]

facial skin = test system: facial skin; design: species or system human; details: in vivo
Description: Qualified subjects returned to the clinic for Visit 2 (baseline). Subjects participated in the following clinical grading and instrumentation procedures: • Objective irritation (erythema, edema, scaling/skin dryness, rash) and subjective irritation (burning, itching, stinging, tingling, tightness) were assessed globally on the face. Results were recorded using the following scale: 0=none, 1=mild, 2=moderate, and 3=severe. • The following efficacy (aging) parameters were graded at the specified locations using a analog scale (extremes of the scale are listed in parentheses).
Subjects were assigned to use test material Product A (cream from Example 4) or Product B (Vehicle control: emulsion system) according to a predetermined randomization. […]
Mean scores for clinical grading parameters and pinch recoil measurements at Week 4 and Week 8 were statistically compared to baseline using a paired t-test at the p≦0.05 significance level. Mean percent change from baseline was calculated for all attributes. […] For self-assessment questionnaire responses at Week 4 and Week 8, mean response values and standard deviations were calculated for each question.
Irritation parameters were graded according to a four-point scale where 0=None, 1=Mild, 2=Moderate, and 3=Severe. Efficacy parameters were assessed according to an analog scale where 0 represents positive scores and 10 represents negative scores.

| Molecule | improvement of bite (insect bite) | appearance of fine lines, wrinkles and skin elasticity in photodamaged skin (photodamaged skin (face)) | objective or subjective skin irritation responses in users (facial skin) |
| --- | --- | --- | --- |
| CC(C)(C(=O)O)c1ccc(C(O)CCCN2CCC(C(O)(c3ccccc3)c3ccccc3)CC2)cc1 (stereo not drawn) [fexofenadine hydrochloride] | little improvement | – | – |
| Lauryliminodipropionic Acid Tocopheryl Phosphate | – | improved the appearance of fine lines, wrinkles and skin elasticity | did not produce objective or subjective skin irritation responses |
